Experiments:
[1] = target: T1, PI3K α (Homo sapiens, UniProt P42336); test: In vitro PI3 kinase enzyme assay (alpha), ATP loss, bioluminescence; format: biochemical; conditions: read-out: PI3Kα ATP loss IC50;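 further: purified p110α/p85 heterodimer acting on PtdIns(4,5)P2 at room temperature, remaining ATP read by luminescence, inhibition scaled between compound-free wells with and without enzyme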
T1 construct: Full length p110 subunits of PI3K α, β and δ, N-terminally labeled with polyHis tag; polyHis (N); made in house; host or cells: Sf9 insect cells (baculovirus)
T1 sequence (P42336 whole entry, species assumed): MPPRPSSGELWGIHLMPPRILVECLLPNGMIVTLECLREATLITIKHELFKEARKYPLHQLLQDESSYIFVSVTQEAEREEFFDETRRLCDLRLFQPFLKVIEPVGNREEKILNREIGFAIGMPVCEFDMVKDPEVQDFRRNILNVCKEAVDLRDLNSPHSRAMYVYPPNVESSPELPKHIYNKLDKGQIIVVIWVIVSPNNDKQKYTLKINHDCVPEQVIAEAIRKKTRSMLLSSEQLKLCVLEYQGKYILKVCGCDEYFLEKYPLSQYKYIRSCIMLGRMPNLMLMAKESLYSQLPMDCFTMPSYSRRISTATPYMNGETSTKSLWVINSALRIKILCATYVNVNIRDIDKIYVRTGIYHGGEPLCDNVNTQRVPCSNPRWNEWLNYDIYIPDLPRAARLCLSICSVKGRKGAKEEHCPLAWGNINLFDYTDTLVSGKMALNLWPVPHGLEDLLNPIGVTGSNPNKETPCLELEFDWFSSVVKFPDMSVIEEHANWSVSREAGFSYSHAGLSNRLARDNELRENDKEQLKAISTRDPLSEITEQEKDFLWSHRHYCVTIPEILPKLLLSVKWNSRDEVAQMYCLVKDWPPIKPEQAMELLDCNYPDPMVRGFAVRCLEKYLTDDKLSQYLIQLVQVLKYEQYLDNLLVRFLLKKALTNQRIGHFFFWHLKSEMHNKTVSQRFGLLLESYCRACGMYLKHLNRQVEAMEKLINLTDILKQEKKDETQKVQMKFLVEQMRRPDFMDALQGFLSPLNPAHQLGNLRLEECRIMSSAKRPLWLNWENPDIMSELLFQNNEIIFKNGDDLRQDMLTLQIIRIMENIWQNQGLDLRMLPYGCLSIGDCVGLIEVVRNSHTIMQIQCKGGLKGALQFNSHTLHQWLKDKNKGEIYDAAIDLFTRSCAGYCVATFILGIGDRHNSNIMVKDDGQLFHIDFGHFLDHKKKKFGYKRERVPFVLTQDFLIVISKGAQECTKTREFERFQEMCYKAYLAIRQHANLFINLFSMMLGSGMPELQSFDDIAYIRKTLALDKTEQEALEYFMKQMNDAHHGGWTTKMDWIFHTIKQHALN
T1 sequence (P27986 whole entry partner, species assumed): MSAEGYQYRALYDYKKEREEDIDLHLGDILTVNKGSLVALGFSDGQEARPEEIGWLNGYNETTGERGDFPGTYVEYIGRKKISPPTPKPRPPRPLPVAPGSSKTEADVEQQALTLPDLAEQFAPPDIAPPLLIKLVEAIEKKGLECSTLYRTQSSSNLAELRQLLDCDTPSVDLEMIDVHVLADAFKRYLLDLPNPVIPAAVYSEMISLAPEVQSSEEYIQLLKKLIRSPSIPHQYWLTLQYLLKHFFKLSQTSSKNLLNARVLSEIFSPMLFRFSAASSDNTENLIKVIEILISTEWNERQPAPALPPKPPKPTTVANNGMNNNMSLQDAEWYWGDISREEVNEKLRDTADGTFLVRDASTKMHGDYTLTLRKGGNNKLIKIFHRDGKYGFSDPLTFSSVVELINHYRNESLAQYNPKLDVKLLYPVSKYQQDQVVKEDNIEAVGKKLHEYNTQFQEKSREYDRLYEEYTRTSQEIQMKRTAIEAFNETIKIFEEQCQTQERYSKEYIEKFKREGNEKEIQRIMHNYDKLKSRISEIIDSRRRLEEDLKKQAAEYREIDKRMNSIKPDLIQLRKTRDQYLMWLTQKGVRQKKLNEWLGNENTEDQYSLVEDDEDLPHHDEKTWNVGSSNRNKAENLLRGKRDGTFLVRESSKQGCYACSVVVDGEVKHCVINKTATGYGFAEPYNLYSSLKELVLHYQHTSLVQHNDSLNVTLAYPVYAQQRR
Experimental: (§1) Full length p110 subunits of PI3K α, β and δ, N-terminally labeled with polyHis tag, were co-expressed with p85 in baculovirus expression vectors in sf9 insect cells. P110/p85 heterodimers were purified by sequential Ni-NTA, Q-HP, and Superdex-100 chromatography. Purified α, β and δ isozymes were stored at −20° C. in 20 mM Tris, pH 8, 0.2M NaCl, 50% glycerol, 5 mM DTT, 2 mM Na cholate.
(§2) PI3K enzyme assays (alpha, beta, delta and gamma) were performed in 25 mL with the above final concentrations of components in white polypropylene plates (Costar catalogue #3355). Phosphatidyl inositol phosphoacceptor, PtdIns(4,5)P2 (eg. P4508) was obtained from Echelon Biosciences. The ATPase activity of the alpha and gamma isozymes was not greatly stimulated by PtdIns(4,5)P2 under these conditions and was therefore omitted from the assay of these isozymes. Test compounds were dissolved in DMSO and diluted with three-fold serial dilutions. The compound in DMSO (1 μL) was added per test well, and the inhibition relative to reactions containing no compound, with and without enzyme was determined. After assay incubation at RT, the reaction was stopped and residual ATP determined by addition of an equal volume of a commercial ATP bioluminescence kit (Perkin Elmer EasyLite) according to the manufacturer's instructions, and detected using an Analyst GT luminometer.

[2] = target: T2, PI3K β (Homo sapiens, UniProt P42338); test: In vitro PI3 kinase enzyme assay (beta), ATP loss, bioluminescence; format: biochemical; conditions: read-out: PI3Kβ ATP loss IC50;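 further: purified p110β/p85 heterodimer with PtdIns(4,5)P2 as acceptor, incubated at room temperature, leftover ATP read by luminescence, inhibition scaled to compound-free wells with and without enzyme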
T2 construct: Full length p110 subunits of PI3K α, β and δ, N-terminally labeled with polyHis tag; polyHis (N); made in house; host or cells: Sf9 insect cells (baculovirus)
T2 sequence (P42338 whole entry): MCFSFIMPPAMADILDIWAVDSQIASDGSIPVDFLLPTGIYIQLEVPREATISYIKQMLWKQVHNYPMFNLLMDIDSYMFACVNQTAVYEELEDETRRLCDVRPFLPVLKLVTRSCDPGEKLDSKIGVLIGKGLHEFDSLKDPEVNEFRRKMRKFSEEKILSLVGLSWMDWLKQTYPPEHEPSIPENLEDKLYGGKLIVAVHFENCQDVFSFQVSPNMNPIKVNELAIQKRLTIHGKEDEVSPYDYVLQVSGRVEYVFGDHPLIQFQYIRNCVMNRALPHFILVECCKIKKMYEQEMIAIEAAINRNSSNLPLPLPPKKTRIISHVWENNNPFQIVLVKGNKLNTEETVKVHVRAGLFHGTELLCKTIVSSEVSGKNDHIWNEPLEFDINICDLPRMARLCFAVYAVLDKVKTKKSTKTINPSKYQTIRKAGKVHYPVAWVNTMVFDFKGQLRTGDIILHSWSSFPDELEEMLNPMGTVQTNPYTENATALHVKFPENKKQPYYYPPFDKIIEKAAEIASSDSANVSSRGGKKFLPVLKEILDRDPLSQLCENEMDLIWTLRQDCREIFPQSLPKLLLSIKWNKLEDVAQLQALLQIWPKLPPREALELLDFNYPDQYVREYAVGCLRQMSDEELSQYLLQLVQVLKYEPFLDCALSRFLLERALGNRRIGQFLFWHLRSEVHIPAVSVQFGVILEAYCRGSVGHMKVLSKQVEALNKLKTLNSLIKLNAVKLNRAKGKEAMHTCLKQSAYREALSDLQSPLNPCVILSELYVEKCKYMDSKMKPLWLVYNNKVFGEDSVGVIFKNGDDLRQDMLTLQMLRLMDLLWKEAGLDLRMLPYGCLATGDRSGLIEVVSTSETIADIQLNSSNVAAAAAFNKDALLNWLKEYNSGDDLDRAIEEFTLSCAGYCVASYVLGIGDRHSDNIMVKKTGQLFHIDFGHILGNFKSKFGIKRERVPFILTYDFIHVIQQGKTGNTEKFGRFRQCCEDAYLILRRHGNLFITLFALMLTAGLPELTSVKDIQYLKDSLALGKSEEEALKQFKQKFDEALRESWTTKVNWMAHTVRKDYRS
T2 sequence (P27986 whole entry partner): as the sequence (P27986 whole entry partner, species assumed) above
Experimental: as §1, §2

Row | Structure (SMILES) | IC50 [1] [nM] | IC50 [2] [µM]
1 | CC(=O)Nc1nc2ccc(-c3ccnc(OCCCCO)n3)cc2s1 [Example 103, N-(6-(2-(4-hydroxybutoxy)-4-pyrimidinyl)-1,3-benzothiazol-2-yl)acetamide] | 727 | > 40
2 | CC(=O)Nc1nc2ccc(-c3ccnc(OCCO)n3)cc2s1 [Example 104, N-(6-(2-(2-hydroxyethoxy)-4-pyrimidinyl)-1,3-benzothiazol-2-yl)acetamide] | 540 | > 40
3 | CC(=O)Nc1nc2ccc(-c3cnc(OC(F)F)cc3C)cc2s1 [Example 250, N-(6-(6-(difluoromethoxy)-4-methylpyridin-3-yl)benzo[d]thiazol-2-yl)acetamide] | 11900 | 27.5
4 | CC(=O)Nc1nc2ccc(-c3ccnc(OCCN(C)C)n3)cc2s1 [Example 9] | 6070 | > 40
5 | CC(=O)Nc1nc2ccc(-c3ccnc(Sc4ccc(C)c(C)c4)n3)cc2s1 [Example 128, N-(6-(2-((3,4-dimethylphenyl)sulfanyl)-4-pyrimidinyl)-1,3-benzothiazol-2-yl)acetamide] | 33.9 | 0.522
6 | CC(=O)Nc1nc2ccc(-c3ccnc(Sc4cc(C)cc(C)c4)n3)cc2s1 [Example 149, N-(6-(2-((3,5-dimethylphenyl)sulfanyl)-4-pyrimidinyl)-1,3-benzothiazol-2-yl)acetamide] | 186 | 0.387
7 | CC(=O)Nc1nc2ccc(-c3ccnc(N4CCCC4c4ccccc4C)n3)cc2s1 (racemic) [Example 262, N-(6-(2-(2-o-tolylpyrrolidin-1-yl)pyrimidin-4-yl)benzo[d]thiazol-2-yl)acetamide] | 1560 | 0.777
8 | CC(=O)Nc1nc2ccc(-c3cnccc3CO)cc2s1 [Example 251, N-(6-(4-(hydroxymethyl)pyridin-3-yl)benzo[d]thiazol-2-yl)acetamide] | 1910 | > 40
9 | CC(=O)Nc1nc2ccc(-c3ccnc(Sc4ccccc4C(C)(C)C)n3)cc2s1 [Example 30, N-(6-(2-((2-tert-butylphenyl)sulfanyl)-4-pyrimidinyl)-1,3-benzothiazol-2-yl)acetamide] | 908 | 1.42
10 | CC(=O)Nc1nc2ccc(-c3csc(S(=O)(=O)c4ccccc4)n3)cc2s1 [Example 64, N-(6-(2-(phenylsulfonyl)thiazol-4-yl)benzo[d]thiazol-2-yl)acetamide] | 846 | > 40
11 | CC(=O)Nc1nc2ccc(-c3cnc(OCCCN(C)C)c(NC(C)C)c3)cc2s1 [Example 153, N-(6-(6-(3-(dimethylamino)propoxy)-5-((1-methylethyl)amino)-3-pyridinyl)-1,3-benzothiazol-2-yl)acetamide] | 284 | 1.84
12 | COCCNc1nccc(-c2ccc3nc(N)sc3c2)n1 [Example 48, 6-(2-((2-methoxyethyl)amino)-4-pyrimidinyl)-1,3-benzothiazol-2-amine] | 18100 | > 40
13 | CC(=O)Nc1nc2ccc(-c3cnc(C)c(N)c3)cc2s1 [Example 142, N-(6-(5-amino-6-methyl-3-pyridinyl)-1,3-benzothiazol-2-yl)acetamide] | 111 | > 40
14 | CC(=O)Nc1nc2ccc(-c3ccnc(OCCc4cccnc4)n3)cc2s1 [Example 18, N-(6-(2-(2-(3-pyridinyl)ethoxy)-4-pyrimidinyl)-1,3-benzothiazol-2-yl)acetamide] | 1100 | 32.2
15 | Nc1nc2ccc(-c3cccc(NS(=O)(=O)c4ccccc4F)n3)cc2s1 [Example 72, N-(6-(2-amino-1,3-benzothiazol-6-yl)-2-pyridinyl)-2-fluorobenzenesulfonamide] | 2270 | 1.6
16 | CC(=O)Nc1nc2ccc(-c3ccnc(Sc4ccccc4C(C)C)n3)cc2s1 [Example 154, N-(6-(2-((2-(1-methylethyl)phenyl)sulfanyl)-4-pyrimidinyl)-1,3-benzothiazol-2-yl)acetamide] | 376 | 1.21
17 | CC(=O)Nc1nc2ccc(-c3cncc(OCCN4CCC(C)C4=O)c3)cc2s1 (centres unmarked) [Example 253] | 1540 | 45.6
18 | CC(=O)Nc1nc2ccc(-c3ccnc(SCc4ccccc4C)n3)cc2s1 [Example 37, N-(6-(2-((2-methylbenzyl)sulfanyl)-4-pyrimidinyl)-1,3-benzothiazol-2-yl)acetamide] | 119 | 4.12
19 | CC(=O)Nc1nc2ccc(-c3ccnc(OCCCO)n3)cc2s1 [Example 102, N-(6-(2-(3-hydroxypropoxy)-4-pyrimidinyl)-1,3-benzothiazol-2-yl)acetamide] | 664 | > 40

The next lines start with the values.

Row | IC50 [1] [nM] | IC50 [2] [µM] | Structure (SMILES)
20 | 221 | > 40 | CC(=O)Nc1nc2ccc(-c3cccc(S(=O)(=O)c4ccccc4)n3)cc2s1 [Example 65, N-(6-(6-(phenylsulfonyl)pyridin-2-yl)benzo[d]thiazol-2-yl)acetamide]
21 | 2490 | 9.98 | CC(=O)Nc1nc2ccc(-c3cncc(OCCN4CCCCCC4)c3)cc2s1 [Example 234, N-(6-(5-(2-(azepan-1-yl)ethoxy)pyridin-3-yl)benzo[d]thiazol-2-yl)acetamide]
22 | 319 | 10.2 | CC(=O)Nc1ccc(S(=O)(=O)Nc2nccc(-c3ccc4nc(NC(C)=O)sc4c3)n2)cc1 [Example 86, N-(4-((4-(2-(acetylamino)-1,3-benzothiazol-6-yl)-2-pyrimidinyl)sulfamoyl)phenyl)acetamide]
23 | 16.3 | 0.0292 | COc1ccc(S(=O)(=O)Nc2cc(-c3ccc4nc(NC(=O)C5CCCCC5)sc4c3)cnc2Cl)cc1 [Example 304, N-(6-(6-chloro-5-(((4-methoxyphenyl)sulfonyl)amino)-3-pyridinyl)-1,3-benzothiazol-2-yl)cyclohexanecarboxamide]
24 | 192 | 0.126 | COc1cccc(Sc2nccc(-c3ccc4nc(NC(C)=O)sc4c3)n2)c1 [Example 41, N-(6-(2-((3-methoxyphenyl)sulfanyl)-4-pyrimidinyl)-1,3-benzothiazol-2-yl)acetamide]
25 | 153 | 7.19 | COc1ccc(S(=O)(=O)Nc2nccc(-c3ccc4nc(NC(C)=O)sc4c3)n2)cc1OC [Example 87, N-(6-(2-(((3,4-dimethoxyphenyl)sulfonyl)amino)-4-pyrimidinyl)-1,3-benzothiazol-2-yl)acetamide]
26 | 375 | 2.93 | CC(=O)Nc1nc2ccc(-c3cncc(N(C)S(=O)(=O)c4ccc(F)cc4)c3)cc2s1 [Example 219, N-(6-(5-(4-fluoro-N-methylphenylsulfonamido)pyridin-3-yl)benzo[d]thiazol-2-yl)acetamide]
27 | 1050 | 8.27 | CC(=O)Nc1nc2ccc(-c3cncc(N(C)S(=O)(=O)c4ccc(C(F)(F)F)cc4)c3)cc2s1 [Example 218, N-(6-(5-(N-methyl-4-(trifluoromethyl)phenylsulfonamido)pyridin-3-yl)benzo[d]thiazol-2-yl)acetamide]
28 | 17.8 | 0.322 | CC(=O)Nc1nc2ccc(-c3nnc(NS(=O)(=O)c4ccc(F)cc4)o3)cc2s1 [Example 164, N-(6-(5-(4-Fluorophenylsulfonamido)-1,3,4-oxadiazol-2-yl)benzo[d]thiazol-2-yl)acetamide]

Source: patent US7928140B2, “Benzothiazole PI3 kinase modulators for cancer treatment” (Amgen Inc., priority 2007, dated 2011)
